Measurements from article PMC12057046, “Elucidation of short linear motif-based interactions of the MIT and rhodanese domains of the ubiquitin-specific protease 8” (Biology Direct, 2025).

Key:
Type in all cases: binding, human
[1] = tested on: USP8 MIT domain; assay: SPOT array of predicted peptides from known interactors, USP8 MIT domain; conditions: for Percentage (%) normalized to highest intensity and corrected for background: SPOT array, GST-tagged MIT 100 µM, overnight 4 °C, chemiluminescence, highest intensity = DNAJB6; for Percentage (%): Supplementary Fig. 4B, normalized to the highest intensity and corrected for background
Text: To further assess the SLiM-based interactions of the USP8 MIT domain, we designed a peptide array tiling 24 potential binding sites in previously reported USP8 interactors. We used SLiMSearch to search for peptides that contain shorter or longer matches to the motif (Supplementary Table S4A). […] The DNAJB6_118 - 130 peptide was predicted as a binder based on a partial DFx{2,3}R motif. The DNAJB6-USP8 interaction is supported by previous GST-pulldown experiments and colocalization of the two proteins in male mouse germ cells, and the interaction is thought to be of importance to the protein quality control to yield functional spermatozoa. In the case of the CDH1_863 - 877 peptide it was predicted as USP8 MIT ligand based on the presence of an RFxxL motif. The previous support of the CDH1-USP8 interaction is based on proximity labelling mass spectrometry, and our results thus provide evidence for a binary interaction between the two proteins and define a binding site. To confirm that the motifs used to predict the interactions were of importance for binding we designed an alanine scanning peptide SPOT array analysis of the DNAJB6_118 - 130 and the CDH1_863 - 877 peptides. […] In summary, we find that the USP8 MIT domain binds to a MIM1-like motif that can be expressed by [[…]], as well as degenerate variants thereof. […] The membranes of predicted peptides were purchased by JPT Peptide Technologies (Berlin, Germany). The membranes were incubated with blocking buffer containing 5% skim milk in TBST (50 mM Tris, 150 mM NaCl pH 7.5, 0.05% Tween-20) for two hours at room temperature. The blocked membranes were incubated with GST-tagged proteins (100 μM for MIT domain and 150 μM for the Rhodanese domain) in blocking buffer overnight at 4 °C. After rinsed with TBST the membranes were incubated with HRP-conjugated anti-GST antibody (Cytiva, RPN1236; 1:3000 dilution) in blocking buffer for 1 h at 4 °C and subsequently rinsed with TBST to remove any excess antibody. The ECL reagent (Clarity Max Western ECL substrate, 1705062, BioRad) was used for chemiluminescence read-out with the ChemiDoc Imaging system (BioRad). The images were analysed with Fiji (ImageJ2 version 2.9.0). […] used to design the peptide arrays with known interactors predicted to contain the motifs. The background signal intensity was subtracted, and the corrected signal intensities were normalized to the positive control and presented as percentage.

[2] = tested on: USP8 MIT domain; assay: Proteomic peptide-phage display (ProP-PD) selection against USP8 MIT domain; parameters: Confidence: scale not given here; conditions: for NGS counts (%): ProP-PD, human disorderome library, GST-tagged MIT bait, four rounds of selection, percent of NGS counts associated with each peptide, Fig. 1B; for max_counts: Total NGS counts; for Confidence: calculated based on four metrics: overlapping peptides, replicated peptides, motif match, peptide counts; for Counts: fraction of NGS counts for a selection; for Promiscuity: number of baits selections where the peptide has been observed, calculated on the domain level; for Replicates: number of screens against the bait protein in which the peptide has been found; for Specificity: proportion for the current bait of the total NGS read counts of the peptide for all baits screened with this library
Description: We explored the peptide-binding of the USP8 MIT domain by using the purified GST-tagged MIT domain as bait in proteomic peptide-phage display (ProP-PD) selections and a library designed to display the predicted unstructured regions of the human proteome. The peptide-coding regions of the binding-enriched phage pools were analysed by next-generation sequencing (NGS). After filtering for high confidence ligands, ten ligands remained (Fig. 1B; Supplementary Table S1). None of the ten identified protein-protein interactions had been previously reported, based on comparison with the information available in IntAct, HIPPIE and BioGrid (February 2025). Of the USP8 interacting proteins found, the D site-binding protein (DBP), which is a clock-controlled transcription factor, appears as an interesting ligand as USP8 has been reported to be involved in controlling the circadian rhythm. Also, the CCDC88A-encoded protein Girdin is an interactor of potential biological relevance as it is a scaffolding protein involved in the EGFR pathway which USP8 is known to regulate. At the motif level, there was no shared consensus motif among the ten peptide ligands. However, by manual inspection we noticed that four of the peptides contained a shared [LI]xxR[IY]xxL sequence, which appears to be a variation of the [DE]xxLxxRLxxL[KR] MIM1 motif described in the Eukaryotic Linear Motif resource (ELM) (Fig. 1B). We performed a SPOT array alanine scanning analysis in which peptides are synthesised on a membrane, and where each amino acid position of the peptide is mutated to alanine (or glycine if alanine is in the wild type peptide) to evaluate the effect of the amino acid residues in binding. We tested two peptides containing the apparent MIM1-like motif, one from Girdin (Girdin1192 − 1207) and one from the histone-lysine N-methyltransferase SETD1B (SETD1B492 − 507). […] AlphaFold3 (AF3) modelling of the four peptides with the variant MIM1 motif and the MIT domain docked the peptides with high confidence (ipTM scores: HIVEP1_741 − 756: 0.87, Girdin1192 − 1207: 0.85, MLPH481 − 496: 0.82, SETD1B492 − 507: 0.75) at the expected MIM1 binding pocket (Fig. 1D). […] However, the USP8 MIT selection was dominated (more than 94% of NGS counts) by two peptides that lack an apparent MIM1 motif. The two peptides were from the EF-hand calcium-binding domain-containing protein 12 (EFCAB12_1 − 16: […]) and from DBP (DBP116 − 131: […]) (Fig. 1B). […] In comparison to this, the EFCAB12_1 − 16 peptide shares a potential Dx[YF]xxxH[SG] motif with the DBP116 − 131 (Fig. 1B). […] The AF3 model of DBP116 − 131 peptide supports the interaction of D120 of the DBP116 − 131 peptide with the residues K74 and N71 in the MIT domain (Fig. 1G), emphasizing the significance of the aspartic acid at this position. […] Of them, two peptides (SYNE2_853 − 868 and PKNOX1_56 − 71) where placed in the same binding site as the Girdin and DBP peptides with high confidences by AF3 modelling (ipTM 0.92 and 0.74; Supplementary Fig. S3).
Four rounds of phage selections were carried out using the second generation human disorderome library or the constructed deep mutational scanning library. At least three individual replicates were used for each bait protein. 10 µg of GST-tagged proteins or GST control (diluted in PBS from the stock of proteins kept in the purification elution buffer) were immobilized in 100 µL PBS on a 96-well MaxiSorp (Nunc) plate overnight at 4 °C. The plates were incubated with blocking buffer (with 0.5% BSA in PBS) for 1 h at 4 °C followed by washing with 0.05% Tween 20 in PBS four times. The naïve phage library (10^11 CFU) was diluted in 1/5th volume PEG/NaCl (20% PEG-8000, 0.4 M NaCl) and 1X PBS, incubated on ice for 10 min and centrifuged at 10,000 [drawing 3] g for 10 min. The pellet was resuspended in the volume of PBS (100 µL/ well). […]

[3] = tested on: USP8 MIT domain; assay: Peptide-phage display-based deep mutational scanning (DMS), USP8 MIT domain; conditions: for DMS-derived binding motif: M13 phage, triplicate selections in biological replicates, NGS, PSSM
How it was run: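 Four rounds of phage selection against immobilized GST-tagged bait (GST control pre-clearing) at 4 °C, using human disorderome or 16-mer deep mutational scanning library (all non-Cys substitutions), ≥3 replicates. Enriched pools sequenced by Illumina NGS; replicate-summed counts converted to averaged fractions and frequency PSSMs per wild-type peptide.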

## APLLCLALLPALAA [NOTCH1, Neurogenic locus notch homolog protein 1 peptide]
[1]
  Percentage (%) normalized to highest intensity and corrected for background: 2%
  Percentage (%): 2%

## DDLSRRFEELKKKT [IST1, IST1 homolog peptide]
[1]
  Percentage (%) normalized to highest intensity and corrected for background: 5%
  Percentage (%): 5%

## SEVSDIESRIAALRAA [MLPH481 − 496, melanophilin peptide]
[2]
  NGS counts (%): 0.52%
  max_counts: 33
  Confidence: 3
  Counts: 0.000511
  Promiscuity: 2
  Replicates: 3
  Specificity: 0.9365
[3]
  DMS-derived binding motif: [DE]Fx{2,3}R[FY]xxLL

## QGPALRYFQLPPRAA [SHANK1 B6, SHANK1 peptide, array position B6]
[1]
  Percentage (%) normalized to highest intensity and corrected for background: 7%
  Percentage (%): 7%

## SGETDLKLLEESIA [NR3C1, Glucocorticoid receptor peptide]
[1]
  Percentage (%) normalized to highest intensity and corrected for background: -4.47%
  Percentage (%): -4%

## RPHDIFRQRKQNT [VIRMA, Protein virilizer homolog peptide]
[1]
  Percentage (%) normalized to highest intensity and corrected for background: 6.6%
  Percentage (%): 7%

## RGVLALALLALALC [RNF149, E3 ubiquitin-protein ligase RNF149 peptide]
[1]
  Percentage (%) normalized to highest intensity and corrected for background: 3%
  Percentage (%): 3%

## PPSSSLELLASLTP [PTPN23, Tyrosine-protein phosphatase non-receptor type 23 peptide]
[1]
  Percentage (%) normalized to highest intensity and corrected for background: -7%
  Percentage (%): -7%

## HRRVRTEGKESSSASR [CACNA1E, Voltage-dependent R-type calcium channel subunit alpha-1E peptide 923-938]
[2]
  NGS counts (%): 0.87%
  max_counts: 96
  Confidence: 2
  Counts: 0.001177
  Promiscuity: 3
  Replicates: 2
  Specificity: 0.7101

## MVSWGRFICLVVVTM [FGFR2, Fibroblast growth factor receptor 2 peptide]
[1]
  Percentage (%) normalized to highest intensity and corrected for background: 2.8%
  Percentage (%): 3%

## PQYTNLGLLNSMDQ [TP63 A14, Tumor protein 63 peptide, array position A14]
[1]
  Percentage (%) normalized to highest intensity and corrected for background: 8%
  Percentage (%): 8%

## QAAIALSLLESPKI [USP28, Ubiquitin carboxyl-terminal hydrolase 28 peptide]
[1]
  Percentage (%) normalized to highest intensity and corrected for background: 1.29%
  Percentage (%): 1%

## TKTLEERISKLISDNE [HIVEP1_741 − 756, Zinc finger protein 40 peptide]
[2]
  NGS counts (%): 0.21%
  max_counts: 19
  Confidence: 2
  Counts: 0.001178
  Promiscuity: 1
  Replicates: 2
  Specificity: 1

## NKTLEYKIEILEKT [KIF23, Kinesin-like protein KIF23 peptide]
[1]
  Percentage (%) normalized to highest intensity and corrected for background: 7%
  Percentage (%): 7%

## QAIYRHPLFPLLALLF [PKNOX1_56 − 71, Homeobox protein PKNOX1 peptide]
[2]
  NGS counts (%): 0.95%
  max_counts: 107
  Confidence: 2
  Counts: 0.001294
  Promiscuity: 21
  Replicates: 1
  Specificity: 0.5

## RFVVALVLLNVAAA [TGOLN2, Trans-Golgi network integral membrane protein 2 peptide]
[1]
  Percentage (%) normalized to highest intensity and corrected for background: -4.72%
  Percentage (%): -5%

## DKEIDLELLQDLME [BIRC6, Baculoviral IAP repeat-containing protein 6 peptide]
[1]
  Percentage (%) normalized to highest intensity and corrected for background: 12%
  Percentage (%): 12%

## HDSLDSRIEMLLKEQR [SETD1B 496-511, Histone-lysine N-methyltransferase SETD1B peptide, overlapping]
[2]
  max_counts: 7
  Confidence: 2
  Counts: 0.0001221
  Promiscuity: 1
  Replicates: 3
  Specificity: 1

## VLSKRKGGNVGKSKRD [ERVK-21, Endogenous retrovirus group K member 21 Env polyprotein peptide 676-691]
[2]
  NGS counts (%): 0.16%
  max_counts: 18
  Confidence: 2
  Counts: 0.000837
  Promiscuity: 4
  Replicates: 1
  Specificity: 0.5806

## MDDDYEAYHSLFLSLL [EFCAB12_1 − 16]
[2]
  NGS counts (%): 78.22%
  max_counts: 3851
  Confidence: 3
  Counts: 0.08013
  Promiscuity: 6
  Replicates: 6
  Specificity: 0.9605
[3]; EFCAB12 MDDDYEAYHSLFLSLL, library USP8_DMS, days 2,3, quotient of wild type and mutant frequencies per column, highest divided by lowest
  PSSM score, enrichment_relative_to_wt: 1
[3]
  DMS-derived binding motif: [DE]Fx{2,3}R[FY]xxLL
